Measurements from ChEMBL document CHEMBL4311959, “Discovery of a potent p38α/MAPK14 kinase inhibitor: Synthesis, in vitro/in vivo biological evaluation, and docking studies” (Eur J Med Chem, 2019).
Blank lines part the entries; values can stand above or below the compound they belong to.

Legend:
[1] = Stability in human plasma assessed as remaining compound at 10 uM incubated for 30 mins by LC-MS analysis; type: ADME, cell-free; conditions: read-out: Stability
[2] = Stability in human plasma assessed as remaining compound at 10 uM incubated for 120 mins by LC-MS analysis; type: ADME, cell-free; conditions: read-out: Stability
[3] = Stability in rat plasma assessed as remaining compound at 10 uM incubated for 30 mins by LC-MS analysis; type: ADME, cell-free; conditions: read-out: Stability
[4] = Stability in rat plasma assessed as remaining compound at 10 uM incubated for 120 mins by LC-MS analysis; type: ADME, cell-free; conditions: read-out: Stability
THP-1 = experiment: Inhibition of LPS-induced TNFalpha production in human THP1 cells incubated for 1 hr followed by LPS stimulation and measured after 4 hrs by TR-FRET method; type: functional, cell-based
[5] = target: T1, Mitogen-activated protein kinase 14 (Homo sapiens, UniProt Q16539); experiment: Inhibition of human p38alpha using MBP as substrate by [gamma-33P]-ATP assay
T1 sequence (Q16539 whole entry): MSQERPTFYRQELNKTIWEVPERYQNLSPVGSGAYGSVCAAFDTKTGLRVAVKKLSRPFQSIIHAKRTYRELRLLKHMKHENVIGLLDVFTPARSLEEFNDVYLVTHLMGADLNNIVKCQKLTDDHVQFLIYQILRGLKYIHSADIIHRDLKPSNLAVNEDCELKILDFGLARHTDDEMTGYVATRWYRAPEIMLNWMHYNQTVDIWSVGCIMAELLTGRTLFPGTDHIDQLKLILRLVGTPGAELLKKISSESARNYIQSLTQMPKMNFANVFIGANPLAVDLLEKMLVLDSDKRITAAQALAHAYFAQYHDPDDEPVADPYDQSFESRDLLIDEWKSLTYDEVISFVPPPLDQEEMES

[6] = target: T1, Mitogen-activated protein kinase 14; experiment: Inhibition of recombinant Nanoluc-tagged p38alpha (unknown origin) expressed in HEK293 cells incubated for 2 to 3 mins by NanoBRET assay; type: cell-based
[7] = target: PI3-kinase p110-alpha/p85-alpha (Homo sapiens) (UniProt P27986+P42336); experiment: Inhibition of human PI3K (p110alpha/p85alpha) at 10 uM using PI as substrate by ADP-Glo Assay relative to control; type: protein-complex assay
[8] = target: Platelet-derived growth factor receptor beta (Homo sapiens) (UniProt P09619); experiment: Inhibition of human PDGFRbeta at 10 uM using poly[Glu:Tyr] (4:1) as substrate by [gamma-33P]-ATP assay relative to control
[9] = target: Mitogen-activated protein kinase 8 (Homo sapiens) (UniProt P45983); experiment: Inhibition of human JNK1 at 10 uM using ATF2 as substrate by [gamma-33P]-ATP assay relative to control
[10] = target: Receptor tyrosine-protein kinase erbB-2 (Homo sapiens) (UniProt P04626); experiment: Inhibition of human ERBB2 at 10 uM using poly[Glu:Tyr] (4:1) as substrate by [gamma-33P]-ATP assay relative to control
[11] = target: Receptor tyrosine-protein kinase erbB-4 (Homo sapiens) (UniProt Q15303); experiment: Inhibition of human ERBB4 at 10 uM using poly[Glu:Tyr] (4:1) as substrate by [gamma-33P]-ATP assay relative to control
[12] = target: Mitogen-activated protein kinase 1 (Homo sapiens) (UniProt P28482); experiment: Inhibition of human ERK2 at 10 uM using MBP as substrate by [gamma-33P]-ATP assay relative to control
[13] = target: Fibroblast growth factor receptor 1 (Homo sapiens) (UniProt P11362); experiment: Inhibition of human FGFR1 at 10 uM using KKKSPGEYVNIEFG as substrate by [gamma-33P]-ATP assay relative to control
Chain of Fibroblast growth factor receptor 1 (Homo sapiens) (P11362 22-822 limits assumed): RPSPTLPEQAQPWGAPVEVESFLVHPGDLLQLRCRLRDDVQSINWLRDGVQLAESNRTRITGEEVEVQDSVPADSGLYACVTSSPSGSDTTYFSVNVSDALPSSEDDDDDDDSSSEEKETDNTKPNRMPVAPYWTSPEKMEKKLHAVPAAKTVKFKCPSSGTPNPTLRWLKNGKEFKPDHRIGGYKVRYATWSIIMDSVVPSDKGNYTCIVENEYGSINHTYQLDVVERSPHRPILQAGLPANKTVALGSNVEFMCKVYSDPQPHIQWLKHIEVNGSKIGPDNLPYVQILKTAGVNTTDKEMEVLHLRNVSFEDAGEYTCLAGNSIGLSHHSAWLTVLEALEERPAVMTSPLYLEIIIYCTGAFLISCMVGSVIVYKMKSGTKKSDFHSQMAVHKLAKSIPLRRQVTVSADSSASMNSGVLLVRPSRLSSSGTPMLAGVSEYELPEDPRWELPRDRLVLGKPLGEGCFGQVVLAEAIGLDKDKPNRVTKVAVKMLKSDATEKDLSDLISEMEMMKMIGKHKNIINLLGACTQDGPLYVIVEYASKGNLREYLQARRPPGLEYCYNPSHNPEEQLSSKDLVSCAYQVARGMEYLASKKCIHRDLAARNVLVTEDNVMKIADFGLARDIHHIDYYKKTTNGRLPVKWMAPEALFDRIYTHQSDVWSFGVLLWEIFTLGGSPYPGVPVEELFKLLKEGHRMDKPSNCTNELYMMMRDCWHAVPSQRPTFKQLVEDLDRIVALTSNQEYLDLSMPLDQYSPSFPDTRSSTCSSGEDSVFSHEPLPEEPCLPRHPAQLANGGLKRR

[14] = target: Receptor-type tyrosine-protein kinase FLT3 (Homo sapiens) (UniProt P36888); experiment: Inhibition of human FLT3 at 10 uM using EAIYAAPFAKKK as substrate by [gamma-33P]-ATP assay relative to control
Chain of Receptor-type tyrosine-protein kinase FLT3 (Homo sapiens) (P36888 whole entry): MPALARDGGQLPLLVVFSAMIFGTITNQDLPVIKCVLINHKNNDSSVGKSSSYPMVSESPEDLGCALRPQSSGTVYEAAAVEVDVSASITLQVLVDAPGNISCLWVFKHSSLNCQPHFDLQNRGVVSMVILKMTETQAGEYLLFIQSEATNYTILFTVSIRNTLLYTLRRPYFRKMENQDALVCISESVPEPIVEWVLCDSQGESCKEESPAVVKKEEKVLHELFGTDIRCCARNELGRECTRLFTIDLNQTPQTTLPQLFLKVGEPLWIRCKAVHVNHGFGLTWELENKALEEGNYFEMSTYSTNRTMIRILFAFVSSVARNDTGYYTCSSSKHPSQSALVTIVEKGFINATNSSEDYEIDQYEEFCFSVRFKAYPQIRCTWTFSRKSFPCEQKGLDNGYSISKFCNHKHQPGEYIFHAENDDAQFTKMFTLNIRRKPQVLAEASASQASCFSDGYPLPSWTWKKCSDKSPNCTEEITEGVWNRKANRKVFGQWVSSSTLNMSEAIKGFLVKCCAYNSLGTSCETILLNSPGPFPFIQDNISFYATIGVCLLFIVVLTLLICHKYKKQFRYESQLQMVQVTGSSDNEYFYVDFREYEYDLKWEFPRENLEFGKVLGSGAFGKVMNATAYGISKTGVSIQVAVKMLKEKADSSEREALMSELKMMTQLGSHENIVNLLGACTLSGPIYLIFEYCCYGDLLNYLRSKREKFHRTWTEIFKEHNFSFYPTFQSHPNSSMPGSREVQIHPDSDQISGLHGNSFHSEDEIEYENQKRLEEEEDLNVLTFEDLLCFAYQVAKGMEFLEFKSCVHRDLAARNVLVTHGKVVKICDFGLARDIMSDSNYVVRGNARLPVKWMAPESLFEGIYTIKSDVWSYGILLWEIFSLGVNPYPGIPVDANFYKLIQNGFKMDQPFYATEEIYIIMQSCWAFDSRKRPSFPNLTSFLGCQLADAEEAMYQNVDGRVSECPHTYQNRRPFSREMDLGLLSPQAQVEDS

[15] = target: Macrophage colony-stimulating factor 1 receptor (Homo sapiens) (UniProt P07333); experiment: Inhibition of human FMS at 10 uM using poly[Glu:Tyr] (4:1) as substrate by [gamma-33P]-ATP assay relative to control
Chain of Macrophage colony-stimulating factor 1 receptor (Homo sapiens) (P07333 whole entry): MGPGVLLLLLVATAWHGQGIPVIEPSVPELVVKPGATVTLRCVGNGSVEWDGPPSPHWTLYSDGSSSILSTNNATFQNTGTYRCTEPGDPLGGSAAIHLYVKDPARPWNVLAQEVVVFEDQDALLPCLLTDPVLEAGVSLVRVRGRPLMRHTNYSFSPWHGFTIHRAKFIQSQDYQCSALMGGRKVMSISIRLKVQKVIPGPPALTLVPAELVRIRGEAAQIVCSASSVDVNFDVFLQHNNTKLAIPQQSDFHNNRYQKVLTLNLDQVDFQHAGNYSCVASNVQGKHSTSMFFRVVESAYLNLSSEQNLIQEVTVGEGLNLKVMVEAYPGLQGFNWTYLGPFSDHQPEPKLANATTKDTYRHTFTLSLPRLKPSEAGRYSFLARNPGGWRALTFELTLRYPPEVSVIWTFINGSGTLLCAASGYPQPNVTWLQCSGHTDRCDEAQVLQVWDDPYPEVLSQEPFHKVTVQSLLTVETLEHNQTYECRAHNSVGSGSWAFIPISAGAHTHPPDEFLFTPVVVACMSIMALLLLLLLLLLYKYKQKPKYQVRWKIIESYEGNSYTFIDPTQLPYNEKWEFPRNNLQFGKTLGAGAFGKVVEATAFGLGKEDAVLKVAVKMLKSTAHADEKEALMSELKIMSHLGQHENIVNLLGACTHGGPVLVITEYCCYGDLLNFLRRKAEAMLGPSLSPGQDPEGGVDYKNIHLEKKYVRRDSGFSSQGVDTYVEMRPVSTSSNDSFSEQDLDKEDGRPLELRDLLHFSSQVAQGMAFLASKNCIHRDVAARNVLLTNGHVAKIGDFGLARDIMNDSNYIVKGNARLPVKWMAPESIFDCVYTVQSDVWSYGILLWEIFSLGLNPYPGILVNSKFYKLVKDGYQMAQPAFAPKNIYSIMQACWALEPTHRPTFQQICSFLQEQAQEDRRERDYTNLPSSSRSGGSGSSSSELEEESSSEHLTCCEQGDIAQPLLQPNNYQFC

[16] = target: Tyrosine-protein kinase JAK1 (Homo sapiens) (UniProt P23458); experiment: Inhibition of human JAK1 at 10 uM using poly[Glu:Tyr] (4:1) as substrate by [gamma-33P]-ATP assay relative to control
[17] = target: Tyrosine-protein kinase JAK2 (Homo sapiens) (UniProt O60674); experiment: Inhibition of human JAK2 at 10 uM using poly[Glu:Tyr] (4:1) as substrate by [gamma-33P]-ATP assay relative to control
[18] = target: T1, Mitogen-activated protein kinase 14; experiment: Inhibition of human p38alpha at 10 uM using MBP as substrate by [gamma-33P]-ATP assay relative to control
[19] = target: Vascular endothelial growth factor receptor 2 (Homo sapiens) (UniProt P35968); experiment: Inhibition of human KDR at 10 uM using poly[Glu:Tyr] (4:1) as substrate by [gamma-33P]-ATP assay relative to control
Chain of Vascular endothelial growth factor receptor 2 (Homo sapiens) (P35968 whole entry): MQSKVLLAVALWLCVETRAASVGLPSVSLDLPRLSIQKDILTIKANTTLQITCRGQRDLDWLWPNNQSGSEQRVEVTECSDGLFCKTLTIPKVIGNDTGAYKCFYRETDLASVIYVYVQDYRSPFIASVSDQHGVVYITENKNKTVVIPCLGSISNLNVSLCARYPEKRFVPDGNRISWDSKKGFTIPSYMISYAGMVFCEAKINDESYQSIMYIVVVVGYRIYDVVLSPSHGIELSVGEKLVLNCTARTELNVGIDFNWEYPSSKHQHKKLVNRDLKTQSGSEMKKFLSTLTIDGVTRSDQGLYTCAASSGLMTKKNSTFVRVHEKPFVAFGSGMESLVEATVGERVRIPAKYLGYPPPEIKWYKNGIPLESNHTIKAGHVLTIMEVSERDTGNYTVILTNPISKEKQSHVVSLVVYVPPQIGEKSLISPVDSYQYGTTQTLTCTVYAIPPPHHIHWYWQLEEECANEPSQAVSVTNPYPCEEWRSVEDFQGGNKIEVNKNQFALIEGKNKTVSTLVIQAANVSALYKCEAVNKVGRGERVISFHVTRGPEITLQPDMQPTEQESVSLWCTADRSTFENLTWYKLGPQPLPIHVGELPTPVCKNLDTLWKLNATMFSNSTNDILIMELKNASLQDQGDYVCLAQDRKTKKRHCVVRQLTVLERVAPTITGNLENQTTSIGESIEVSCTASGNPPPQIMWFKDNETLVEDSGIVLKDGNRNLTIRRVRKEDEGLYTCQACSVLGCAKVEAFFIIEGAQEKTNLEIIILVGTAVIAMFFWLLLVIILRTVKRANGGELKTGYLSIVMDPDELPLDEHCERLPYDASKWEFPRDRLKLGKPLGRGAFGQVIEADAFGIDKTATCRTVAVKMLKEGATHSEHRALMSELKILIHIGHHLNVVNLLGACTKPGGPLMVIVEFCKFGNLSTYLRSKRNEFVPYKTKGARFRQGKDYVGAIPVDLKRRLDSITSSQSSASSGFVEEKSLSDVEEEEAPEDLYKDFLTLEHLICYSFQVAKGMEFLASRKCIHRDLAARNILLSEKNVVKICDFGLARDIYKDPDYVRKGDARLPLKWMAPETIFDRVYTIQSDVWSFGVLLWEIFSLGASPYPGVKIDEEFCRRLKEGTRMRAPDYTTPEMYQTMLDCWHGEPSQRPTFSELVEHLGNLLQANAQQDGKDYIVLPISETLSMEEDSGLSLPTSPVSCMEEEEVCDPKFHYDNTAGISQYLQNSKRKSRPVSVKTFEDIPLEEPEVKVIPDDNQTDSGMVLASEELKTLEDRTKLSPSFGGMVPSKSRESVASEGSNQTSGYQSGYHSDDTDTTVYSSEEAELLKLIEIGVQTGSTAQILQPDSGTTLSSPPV

[20] = target: Dual specificity mitogen-activated protein kinase kinase 1 (Homo sapiens) (UniProt Q02750); experiment: Inhibition of human MEK1 at 10 uM using ERK2 as substrate by [gamma-33P]-ATP assay relative to control
[21] = target: Serine/threonine-protein kinase B-raf (Homo sapiens) (UniProt P15056); experiment: Inhibition of human BRAF at 10 uM using MEK1 (K97R) as substrate by [gamma-33P]-ATP assay relative to control
[22] = system: Serine/threonine-protein kinase B-raf (Homo sapiens), P15056 [V600E]; experiment: Inhibition of human BRAF V600E mutant at 10 uM using MEK1 (K97R) as substrate by [gamma-33P]-ATP assay relative to control
[23] = target: Mast/stem cell growth factor receptor Kit (Homo sapiens) (UniProt P10721); experiment: Inhibition of human c-KIT at 10 uM using poly[Glu:Tyr] (4:1) as substrate by [gamma-33P]-ATP assay relative to control
[24] = target: Hepatocyte growth factor receptor (Homo sapiens, UniProt P08581); experiment: Inhibition of human c-MET at 10 uM using KKKSPGEYVNIEFG as substrate by [gamma-33P]-ATP assay relative to control
[25] = target: RAF proto-oncogene serine/threonine-protein kinase (Homo sapiens, UniProt P04049); experiment: Inhibition of human RAF1 at 10 uM using MEK1 (K97R) as substrate by [gamma-33P]-ATP assay relative to control
[26] = target: DNA-dependent protein kinase catalytic subunit (Homo sapiens) (UniProt P78527); experiment: Inhibition of human DNAPK at 10 uM using EPPLSQEAFADLWKK as substrate by […]-ATP assay relative to control
[27] = target: Epidermal growth factor receptor (Homo sapiens) (UniProt P00533); experiment: Inhibition of human EGFR at 10 uM using poly[Glu:Tyr] (4:1) as substrate by [gamma-33P]-ATP assay relative to control
[28] = target: Aurora kinase A (Homo sapiens) (UniProt O14965); experiment: Inhibition of human Aurora A at 10 uM using [H-LRRASLG] as substrate by [gamma-33P]-ATP assay relative to control
Chain of Aurora kinase A (Homo sapiens) (O14965 whole entry): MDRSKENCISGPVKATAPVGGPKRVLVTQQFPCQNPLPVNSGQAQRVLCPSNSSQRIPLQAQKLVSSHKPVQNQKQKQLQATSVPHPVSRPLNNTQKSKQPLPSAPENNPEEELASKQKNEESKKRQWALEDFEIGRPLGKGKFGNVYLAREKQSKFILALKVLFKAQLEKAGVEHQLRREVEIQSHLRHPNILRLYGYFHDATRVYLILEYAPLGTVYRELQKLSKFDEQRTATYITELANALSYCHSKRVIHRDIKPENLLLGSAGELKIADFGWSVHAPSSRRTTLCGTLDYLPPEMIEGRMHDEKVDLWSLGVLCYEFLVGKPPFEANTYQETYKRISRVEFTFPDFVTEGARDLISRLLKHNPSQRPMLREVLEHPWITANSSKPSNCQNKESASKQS

[29] = target: ALK tyrosine kinase receptor (Homo sapiens) (UniProt Q9UM73); experiment: Inhibition of human ALK at 10 uM using poly[Glu:Tyr] (4:1) as substrate by [gamma-33P]-ATP assay relative to control
[30] = target: Serine/threonine-protein kinase A-Raf (Homo sapiens) (UniProt P10398); experiment: Inhibition of human ARAF at 10 uM using MEK1 as substrate by [gamma-33P]-ATP assay relative to control
[31] = target: RAC-alpha serine/threonine-protein kinase (Homo sapiens) (UniProt P31749); experiment: Inhibition of human AKT1 at 10 uM using KGSGSGRPRTSSFAEG as substrate by [gamma-33P]-ATP assay relative to control
[32] = target: Tyrosine-protein kinase ABL1 (Homo sapiens) (UniProt P00519); experiment: Inhibition of human ABL1 at 10 uM using EAIYAAPFAKKK as substrate by [gamma-33P]-ATP assay relative to control
Rattus norvegicus = experiment: Antiinflammatory activity in Sprague-Dawley rat assessed as inhibition of carrageenan-induced paw edema at 50 mg/kg, ip administered 1 hr before carrageenan stimulation and measured after 3 hrs relative to control; type: functional
[33] = target: T1, Mitogen-activated protein kinase 14; experiment: Inhibition of p38alpha (unknown origin)

Structure (SMILES): COc1ccc([C@@H]2Sc3ccccc3N(CCN(C)C)C(=O)[C@@H]2OC(C)=O)cc1 [DILTIAZEM]
- remaining at 0.5 h, 10 µM [1]: 91.5%
- remaining at 2 h, 10 µM [2]: 89.3%
- remaining at 0.5 h, 10 µM [3]: 86.3%
- remaining at 2 h, 10 µM [4]: 45.4%

Structure (SMILES): C[S+]([O-])c1ccc(-c2nc(-c3ccc(F)cc3)c(-c3ccncc3)[nH]2)cc1 (stereo not given) [SB-203580]
- IC50 (THP-1): 0.02 µM

Structure (SMILES): CCN(CC)CCOC(=O)c1ccc(N)cc1 [PROCAINE]
- remaining at 0.5 h, 10 µM [1]: 1.2%
- remaining at 2 h, 10 µM [2]: 0.2%
- remaining at 0.5 h, 10 µM [3]: 89.9%
- remaining at 2 h, 10 µM [4]: 42.7%

Structure (SMILES): O=C(Nc1cccc(-n2cc(-c3ccncc3)c(-c3ccc(O)c(Cl)c3)n2)c1)c1cccc(C(F)(F)F)c1
- IC50 [5]: > 30 µM

Structure (SMILES): O=C(Nc1cccc(-n2cc(-c3ccncc3)c(-c3ccc(O)c(Cl)c3)n2)c1)Nc1cc(C(F)(F)F)cc(C(F)(F)F)c1
- IC50 [5]: > 30 µM

Structure (SMILES): O=C(Nc1cccc(-n2cc(-c3ccncc3)c(-c3ccc(O)c(Cl)c3)n2)c1)Nc1ccc(Cl)c(C(F)(F)F)c1
- IC50 [5]: > 30 µM

Structure (SMILES): O=C(Nc1cccc(-n2cc(-c3ccncc3)c(-c3ccc(O)c(Cl)c3)n2)c1)Nc1cccc(C(F)(F)F)c1
- IC50 [5]: > 30 µM

Structure (SMILES): O=C(Nc1ccccc1)Nc1cccc(-n2cc(-c3ccncc3)c(-c3ccc(O)c(Cl)c3)n2)c1
- IC50 [5]: > 30 µM

Structure (SMILES): O=C(Nc1cccc(-n2cc(-c3ccncc3)c(-c3ccc(O)c(Cl)c3)n2)c1)c1cc(C(F)(F)F)cc(C(F)(F)F)c1
- IC50 [5]: > 30 µM

Structure (SMILES): O=C(O)Cc1ccccc1Nc1c(Cl)cccc1Cl [DICLOFENAC]
- inhibition in vivo at 50 mg/kg (Rattus norvegicus): 71.3%

Structure (SMILES): COc1cccc(-c2nn(-c3ccccc3)cc2-c2ccncc2)c1
- IC50 [33]: 0.515 µM

Structure (SMILES): O=C(Nc1cccc(-n2cc(-c3ccncc3)c(-c3ccc(O)c(Cl)c3)n2)c1)c1ccc(N2CCOCC2)c(C(F)(F)F)c1
- IC50 [5]: > 30 µM

The next lines start with the values.

- IC50 [5]: 14.4 µM
Structure (SMILES): O=C(Nc1cccc(-n2cc(-c3ccncc3)c(-c3ccc(O)c(Cl)c3)n2)c1)Nc1ccc(Cl)c(Cl)c1

- IC50 [5]: 12.2 µM
Structure (SMILES): COc1ccc(-c2nn(-c3cccc(NC(=O)Nc4cccc(C(F)(F)F)c4)c3)cc2-c2ccncc2)cc1Cl

- IC50 [5]: 6.07 µM
Structure (SMILES): COc1ccc(-c2nn(-c3cccc(NC(=O)c4ccc(N5CCOCC5)c(C(F)(F)F)c4)c3)cc2-c2ccncc2)cc1Cl

- EC50 [6]: 1.94 µM
- IC50 [5]: 0.307 µM
- inhibition [7]: 8.99%
- inhibition [8]: -7.69%
- inhibition [9]: 22.2%
- inhibition [10]: 0.29%
- inhibition [11]: 20.1%
- inhibition [12]: -8.43%
- inhibition [13]: 4.66%
- inhibition [14]: -6.35%
- inhibition [15]: 5.95%
- inhibition [16]: 9%
- inhibition [17]: -4.38%
- inhibition [18]: 86.4%
- inhibition [19]: 2.65%
- inhibition [20]: -4.12%
- inhibition [21]: 8.96%
- inhibition [22]: 35.8%
- inhibition [23]: 2.7%
- inhibition [24]: 48.5%
- inhibition [25]: 40.4%
- inhibition [26]: 0.81%
- inhibition [27]: 2.48%
- inhibition [28]: -3.14%
- inhibition [29]: -3.13%
- inhibition [30]: 57%
- inhibition [31]: 4.08%
- inhibition [32]: -7.26%
Structure (SMILES): COc1ccc(-c2nn(-c3cccc(NC(=O)Nc4cc(C(F)(F)F)cc(C(F)(F)F)c4)c3)cc2-c2ccncc2)cc1Cl

- IC50 [5]: 8.54 µM
Structure (SMILES): COc1ccc(-c2nn(-c3cccc(NC(=O)Nc4ccc(Cl)c(C(F)(F)F)c4)c3)cc2-c2ccncc2)cc1Cl

- IC50 [5]: 1.29 µM
Structure (SMILES): COc1ccc(-c2nn(-c3cccc(NC(=O)c4ccc(Cl)c(Cl)c4)c3)cc2-c2ccncc2)cc1Cl

- IC50 [5]: 2.83 µM
Structure (SMILES): COc1ccc(-c2nn(-c3cccc(NC(=O)Nc4ccc(Cl)c(Cl)c4)c3)cc2-c2ccncc2)cc1Cl

- IC50 [5]: 2.33 µM
Structure (SMILES): COc1ccc(-c2nn(-c3cccc(NC(=O)c4cc(C(F)(F)F)cc(C(F)(F)F)c4)c3)cc2-c2ccncc2)cc1Cl

- IC50 [5]: 14.3 µM
Structure (SMILES): O=C(Nc1cccc(-n2cc(-c3ccncc3)c(-c3ccc(O)c(Cl)c3)n2)c1)c1ccc(Cl)c(Cl)c1

- IC50 [5]: 4 µM
Structure (SMILES): COc1ccc(-c2nn(-c3cccc(NC(=O)Nc4ccccc4)c3)cc2-c2ccncc2)cc1Cl
